{"source": "patent US20260209304A1", "about": "“INSULIN RECEPTOR ANTAGONIST” (The Board of Trustees of the Leland Stanford Junior …, priority 2022, published 2026)", "key": {"insulin receptor (IR)": {"target": "insulin receptor (IR) (Homo sapiens, UniProt P06213)", "assay": "Binding affinity of insulin-core mutants relative to the A13R mutation"}, "human insulin receptor [1]": {"target": "T1, human insulin receptor (Homo sapiens, UniProt P06213)", "assay": "Cell-based pAKT (Ser473) assay in NIH 3T3 cells overexpressing human insulin receptor", "set-up": "expressed in transfected cells; host or cells: NIH 3T3 cell line derived from IGF-1R knockout mice (gift from A. Morrione, Thomas Jefferson University)", "experimental": "All the values are shown as mean±SD (n=4). EC50 and IC50 values were calculated by Prism 9 (GraphPad Software, California, USA) with nonlinear regression curve fitting of dose-response asymmetric equation.\nCell-based pAKT and phosphor-IR-beta Assays. The bioactivities of the analogs were evaluated through a cell-based pAKT (Ser473) assay or phospho-IR-beta (Tyr1150/1151) assay. Endogenous levels of pAKT or phosphor-IR-beta were measured in a human insulin receptor overexpressed NIH 3T3 cell line, derived from IGF-1R knockout mice (a generous gift from A. Morrione, Thomas Jefferson University). Cells were cultured in DMEM (Gibco) with 10% fetal bovine serum (FBS, Gibco), 100 U/mL penicillin-streptomycin (Gibco), 2 mg/mL puromycin (Thermo Fisher Scientific), and 1 mg/mL normocin (InvivoGen) at 37° C. under 5% CO2. For the assays, 30,000 cells per well and 100 μl per well, were plated in a 96-well plate with culture media containing 1% FBS. 20 hours later, the media was removed and 50 μl of culture media with different concentrations of native insulin or analog was pipetted into each well. […] After 4 hours of incubation, the plate was read in a SpectraMax iD5 plate reader (Molecular Devices) and the data were processed according to the manufacturer's protocol. […]"}, "human insulin receptor [2]": {"target": "T1, human insulin receptor", "assay": "cell-based or functional assay"}}, "note": "Positions of bridges follow the written chain, without caps; N, C: chain ends. Chains are numbered I, II in the order given. No end group written: not given here.", "data": [{"molecule": "I: FVNQHLCGSELVEALYLVCGERGFFYTPK / II: GIVEQCCHRICSLYQLENYCGGSLPETGG (disulfide I:7-II:7, I:19-II:20, II:6-II:11) [Ins-AC-10-9]", "values": [{"measurement": "binding affinity relative to the A13R mutation", "setting": "insulin receptor (IR)", "value": "increased"}, {"measurement": "EC50", "setting": "human insulin receptor [1]", "value": 0.562, "unit": "nM"}]}, {"molecule": "I: GIVEQCCHRICSLYQLENYCGGSLPETGGGSLEEEWAQIQSEVWGRGSPSY / II: FVNQHLCGSELVEALYLVCGERGFFYTPK (disulfide I:6-I:11, I:7-II:7, I:20-II:19) [Ins-AC-10-11]", "values": [{"measurement": "binding affinity relative to the A13R mutation", "setting": "insulin receptor (IR)", "value": "increased"}, {"measurement": "EC50", "setting": "human insulin receptor [1]", "value": 0.0115, "unit": "nM"}]}, {"molecule": "Ins-AC-10-9 (designed binder) chain 1: GIVEQCCHRICSLYQLENYCGGSLPETGG chain 2: FVNQHLCGSELVEALYLVCGERGFFYTPK", "values": [{"measurement": "Agonist Activity (nM), cell-based pAKT assay", "setting": "human insulin receptor [2]", "value": 0.562, "unit": "nM"}]}, {"molecule": "Ins-AC-10-11 (designed binder) chain 1: GIVEQCCHRICSLYQLENYCGGSLPETGGGSLEEEWAQIQSEVWGRGSPSY chain 2: FVNQHLCGSELVEALYLVCGERGFFYTPK", "values": [{"measurement": "Agonist Activity (nM), cell-based pAKT assay", "setting": "human insulin receptor [2]", "value": 0.0115, "unit": "nM"}, {"measurement": "Antagonist Activity (nM), cell-based pAKT assay", "setting": "human insulin receptor [2]", "value": 0.5, "unit": "nM"}]}]}
